Laboratory results reported in patent US9546172B2, “Pyrazolo[3,4-d]pyrimidine and pyrazolo[2,3-d]pyrimidine compounds as kinase inhibitors” (Pharmacyclics LLC, priority 2011, dated 2017).

What was measured:
Format in all cases: biochemical
Lyn = Lyn (Homo sapiens, UniProt P07948); test: Lyn kinase inhibition
Lck = Lck (Homo sapiens, UniProt P06239); test: Lck kinase inhibition
In short: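 Compounds were tested at several concentrations with ATP equal to its Km. Phosphorylation was detected by time-resolved FRET using a europium anti-phosphotyrosine antibody and streptavidin-APC after EDTA quench. Apparent Ki values came from curve fitting, and IC50 was derived from Ki(app), ATP/Km and total enzyme.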

Btk = target: T1, Btk (Homo sapiens, UniProt Q06187); test: Btk in vitro inhibitory activity (one of Methods A, B, C); conditions: determined in one of three in vitro assays (Examples 125-127)
T1 construct: purified from insect cells as a full-length construct containing a N-terminal 6×-His tag; 6xHis (N); host or cells: insect cells (baculovirus Sf21 in Method B)
In short: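 Values come from one of three formats: TR-FRET (665/615 nm ratio; Ki(app) converted to IC50 with [ATP]=Km, 0.5 nM Btk), mobility-shift product/sum ratio over 12 concentrations with 4-parameter fit, or radiometric filter binding using His-tagged full-length human Btk (8 nM), 0.2 mg/mL poly-Glu-Tyr, 1 μM ATP, 120 min RT.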

BMX = target: T2, BMX (Homo sapiens, UniProt P51813); test: BMX kinase inhibition
T2 sequence (P51813 1-675): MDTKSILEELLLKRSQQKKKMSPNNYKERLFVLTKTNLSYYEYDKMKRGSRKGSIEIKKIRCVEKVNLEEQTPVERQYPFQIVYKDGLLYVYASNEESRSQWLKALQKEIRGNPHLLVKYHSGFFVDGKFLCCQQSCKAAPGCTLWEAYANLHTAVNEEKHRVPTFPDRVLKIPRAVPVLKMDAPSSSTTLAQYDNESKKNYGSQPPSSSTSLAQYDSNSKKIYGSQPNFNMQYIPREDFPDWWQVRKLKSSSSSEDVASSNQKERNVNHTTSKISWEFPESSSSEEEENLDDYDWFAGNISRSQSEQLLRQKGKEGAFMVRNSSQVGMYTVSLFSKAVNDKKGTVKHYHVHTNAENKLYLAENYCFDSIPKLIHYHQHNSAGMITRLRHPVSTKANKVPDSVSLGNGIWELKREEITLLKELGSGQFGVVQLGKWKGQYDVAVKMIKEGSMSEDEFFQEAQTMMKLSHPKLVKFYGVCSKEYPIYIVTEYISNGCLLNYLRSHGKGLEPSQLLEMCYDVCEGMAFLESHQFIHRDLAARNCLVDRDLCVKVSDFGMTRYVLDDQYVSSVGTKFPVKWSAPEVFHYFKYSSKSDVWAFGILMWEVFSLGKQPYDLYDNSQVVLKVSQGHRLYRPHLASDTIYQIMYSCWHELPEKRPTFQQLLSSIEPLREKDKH

CSK = CSK (Homo sapiens, UniProt P41240); test: CSK kinase inhibition
RET = RET (Homo sapiens, UniProt P07949); test: RET kinase inhibition
C-src = C-src (Homo sapiens, UniProt P12931); test: C-src kinase inhibition
BLK = BLK (Homo sapiens, UniProt P51451); test: BLK kinase inhibition
Procedure: (§1) Btk kinase activity was determined using a time-resolved fluorescence resonance energy transfer (TR-FRET) methodology. Measurements were performed in a reaction volume of 50 μL using 96-well assay plates. […] The reaction was quenched by the addition of 1.2 equivalents of EDTA (relative to divalent cation) in 25 μL of 1× Lance buffer (Perkin-Elmer). Streptavidin-APC (Perkin-Elmer) and Eu-labeled p-Tyr100 antibody (Perkin-Elmer) in 1× Lance buffer were added in a 25 μL volume to give final concentrations of 100 nM and 2.5 nM, respectively, and the mixture was allowed to incubate for one hour. The TR-FRET signal was measured on a multimode plate reader with an excitation wavelength (λEx) of 330 nm and detection wavelengths (λEm) of 615 and 665 nm. Activity was determined by the ratio of the fluorescence at 665 nm to that at 615 nm. For each compound, enzyme activity was measured at various concentrations of compound. Negative control reactions were performed in the absence of inhibitor in replicates of six, and two no-enzyme controls were used to determine baseline fluorescence levels Inhibition constants, Ki(app), were obtained using the program BatchKi (Kuzmic et al. (2000), Anal. Biochem. 286:45-50). IC50s were obtained according to the equation: IC50={Ki(app)/(1+[ATP]/Km^ATP)}+[E]total/2; For all kinases, [ATP]=Km^ATP, [Btk]total=0.5 nM and [Lck]total=6 nM.

Tec = target: T3, Tec (Homo sapiens, UniProt P42680); test: Tec kinase inhibition
T3 sequence (P42680 1-631): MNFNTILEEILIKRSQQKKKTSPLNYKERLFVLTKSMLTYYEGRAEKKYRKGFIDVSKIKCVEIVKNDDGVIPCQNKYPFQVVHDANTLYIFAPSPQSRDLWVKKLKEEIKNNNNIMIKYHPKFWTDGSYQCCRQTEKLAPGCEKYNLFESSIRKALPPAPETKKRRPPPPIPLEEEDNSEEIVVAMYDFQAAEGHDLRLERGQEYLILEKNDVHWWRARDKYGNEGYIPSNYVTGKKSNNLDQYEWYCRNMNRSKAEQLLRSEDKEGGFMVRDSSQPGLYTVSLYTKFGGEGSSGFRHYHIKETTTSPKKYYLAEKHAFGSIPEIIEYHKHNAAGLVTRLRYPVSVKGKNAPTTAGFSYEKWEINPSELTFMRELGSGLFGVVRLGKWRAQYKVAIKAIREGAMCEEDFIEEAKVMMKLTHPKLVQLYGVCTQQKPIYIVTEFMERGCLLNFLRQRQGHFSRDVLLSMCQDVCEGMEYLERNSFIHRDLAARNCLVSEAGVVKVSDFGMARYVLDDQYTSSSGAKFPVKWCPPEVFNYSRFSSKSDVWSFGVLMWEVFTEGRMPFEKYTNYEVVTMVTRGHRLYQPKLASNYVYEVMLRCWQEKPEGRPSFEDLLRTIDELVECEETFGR
Procedure: as §1

EGFR = EGFR (Homo sapiens, UniProt P00533); test: EGFR kinase inhibition
Chain of EGFR (P00533 25-1210): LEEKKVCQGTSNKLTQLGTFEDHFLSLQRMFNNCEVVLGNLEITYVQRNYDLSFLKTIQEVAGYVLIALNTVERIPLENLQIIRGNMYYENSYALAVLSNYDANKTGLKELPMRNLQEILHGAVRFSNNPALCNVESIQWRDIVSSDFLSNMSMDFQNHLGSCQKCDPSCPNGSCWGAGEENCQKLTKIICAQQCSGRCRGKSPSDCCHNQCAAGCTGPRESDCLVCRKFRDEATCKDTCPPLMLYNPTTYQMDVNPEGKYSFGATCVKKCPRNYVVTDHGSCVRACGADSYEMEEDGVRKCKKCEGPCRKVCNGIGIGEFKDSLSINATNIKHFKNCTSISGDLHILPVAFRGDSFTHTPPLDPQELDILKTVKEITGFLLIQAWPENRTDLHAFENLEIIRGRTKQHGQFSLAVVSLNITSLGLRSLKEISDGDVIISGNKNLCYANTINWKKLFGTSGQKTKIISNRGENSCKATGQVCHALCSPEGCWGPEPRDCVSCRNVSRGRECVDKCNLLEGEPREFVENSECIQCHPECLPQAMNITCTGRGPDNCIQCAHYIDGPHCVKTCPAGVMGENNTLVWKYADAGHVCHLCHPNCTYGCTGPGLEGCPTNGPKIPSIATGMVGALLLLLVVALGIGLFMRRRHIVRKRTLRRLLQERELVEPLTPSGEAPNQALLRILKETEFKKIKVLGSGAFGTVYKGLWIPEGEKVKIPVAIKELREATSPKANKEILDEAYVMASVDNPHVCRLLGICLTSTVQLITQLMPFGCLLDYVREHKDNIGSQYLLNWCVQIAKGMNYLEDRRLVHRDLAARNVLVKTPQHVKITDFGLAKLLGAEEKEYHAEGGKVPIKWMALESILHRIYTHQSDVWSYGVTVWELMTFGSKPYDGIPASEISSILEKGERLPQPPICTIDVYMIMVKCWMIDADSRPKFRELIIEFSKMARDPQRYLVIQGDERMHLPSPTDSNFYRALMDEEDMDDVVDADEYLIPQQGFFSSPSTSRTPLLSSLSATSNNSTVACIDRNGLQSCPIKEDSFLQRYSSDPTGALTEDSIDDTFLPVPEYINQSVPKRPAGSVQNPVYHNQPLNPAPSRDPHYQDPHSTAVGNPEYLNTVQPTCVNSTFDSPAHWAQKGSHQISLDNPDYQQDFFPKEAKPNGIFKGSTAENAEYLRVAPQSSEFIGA

Chain of RET (P07949 29-1114): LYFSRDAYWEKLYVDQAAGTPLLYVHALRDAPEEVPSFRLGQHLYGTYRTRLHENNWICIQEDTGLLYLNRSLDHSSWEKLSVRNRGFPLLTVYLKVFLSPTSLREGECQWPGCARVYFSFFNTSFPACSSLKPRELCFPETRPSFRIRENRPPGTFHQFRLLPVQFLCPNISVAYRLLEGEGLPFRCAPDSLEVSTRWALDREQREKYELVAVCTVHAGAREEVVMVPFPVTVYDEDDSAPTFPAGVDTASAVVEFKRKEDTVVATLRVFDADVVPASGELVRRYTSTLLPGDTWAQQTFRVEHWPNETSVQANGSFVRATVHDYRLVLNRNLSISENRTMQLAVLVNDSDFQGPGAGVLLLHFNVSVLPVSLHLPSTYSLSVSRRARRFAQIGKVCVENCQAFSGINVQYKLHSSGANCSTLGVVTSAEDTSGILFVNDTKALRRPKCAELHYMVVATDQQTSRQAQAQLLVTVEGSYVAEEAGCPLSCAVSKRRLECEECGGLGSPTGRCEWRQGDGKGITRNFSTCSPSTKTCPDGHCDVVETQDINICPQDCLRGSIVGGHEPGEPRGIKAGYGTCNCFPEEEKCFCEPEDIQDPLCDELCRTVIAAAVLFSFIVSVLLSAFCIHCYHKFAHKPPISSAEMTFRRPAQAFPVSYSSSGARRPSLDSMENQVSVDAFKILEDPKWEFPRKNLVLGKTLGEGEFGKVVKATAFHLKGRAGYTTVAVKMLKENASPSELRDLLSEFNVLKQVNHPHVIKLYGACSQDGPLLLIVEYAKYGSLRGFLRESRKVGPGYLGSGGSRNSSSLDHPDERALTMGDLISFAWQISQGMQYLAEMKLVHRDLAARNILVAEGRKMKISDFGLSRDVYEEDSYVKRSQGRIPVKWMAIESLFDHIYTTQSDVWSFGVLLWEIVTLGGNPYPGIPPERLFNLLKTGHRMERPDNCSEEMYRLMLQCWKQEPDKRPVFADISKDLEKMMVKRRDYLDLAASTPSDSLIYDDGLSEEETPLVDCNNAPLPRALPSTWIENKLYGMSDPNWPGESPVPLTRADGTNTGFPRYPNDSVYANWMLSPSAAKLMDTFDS
Chain of Lck (P06239 whole entry): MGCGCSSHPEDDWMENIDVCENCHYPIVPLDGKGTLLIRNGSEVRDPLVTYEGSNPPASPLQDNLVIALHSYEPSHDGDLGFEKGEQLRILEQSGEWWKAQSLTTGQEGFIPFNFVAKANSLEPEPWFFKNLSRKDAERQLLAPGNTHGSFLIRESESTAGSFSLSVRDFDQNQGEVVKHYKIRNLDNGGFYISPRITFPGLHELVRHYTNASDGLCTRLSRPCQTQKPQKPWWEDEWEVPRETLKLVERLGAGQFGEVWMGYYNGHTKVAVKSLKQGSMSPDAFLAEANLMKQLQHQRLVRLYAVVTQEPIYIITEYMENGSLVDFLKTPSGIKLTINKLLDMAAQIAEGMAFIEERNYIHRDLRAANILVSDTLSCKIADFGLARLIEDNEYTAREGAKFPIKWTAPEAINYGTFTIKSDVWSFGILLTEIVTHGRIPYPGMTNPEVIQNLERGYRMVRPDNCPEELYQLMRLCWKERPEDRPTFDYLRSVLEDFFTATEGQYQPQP
Chain of Lyn (P07948 whole entry): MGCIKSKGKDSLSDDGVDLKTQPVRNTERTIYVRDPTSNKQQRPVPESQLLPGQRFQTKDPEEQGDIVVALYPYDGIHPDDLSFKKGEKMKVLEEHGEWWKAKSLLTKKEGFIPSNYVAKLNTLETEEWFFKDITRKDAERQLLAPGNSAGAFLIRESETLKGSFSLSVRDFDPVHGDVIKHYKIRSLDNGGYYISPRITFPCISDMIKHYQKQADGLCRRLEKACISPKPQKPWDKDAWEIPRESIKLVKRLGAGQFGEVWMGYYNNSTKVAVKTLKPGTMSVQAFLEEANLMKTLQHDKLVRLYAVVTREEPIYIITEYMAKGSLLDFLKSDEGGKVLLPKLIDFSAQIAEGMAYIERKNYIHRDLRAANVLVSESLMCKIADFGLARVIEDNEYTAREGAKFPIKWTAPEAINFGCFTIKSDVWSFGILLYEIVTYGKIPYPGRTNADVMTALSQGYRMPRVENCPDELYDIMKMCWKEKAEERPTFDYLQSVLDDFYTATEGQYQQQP
T1 sequence (Q06187 whole entry): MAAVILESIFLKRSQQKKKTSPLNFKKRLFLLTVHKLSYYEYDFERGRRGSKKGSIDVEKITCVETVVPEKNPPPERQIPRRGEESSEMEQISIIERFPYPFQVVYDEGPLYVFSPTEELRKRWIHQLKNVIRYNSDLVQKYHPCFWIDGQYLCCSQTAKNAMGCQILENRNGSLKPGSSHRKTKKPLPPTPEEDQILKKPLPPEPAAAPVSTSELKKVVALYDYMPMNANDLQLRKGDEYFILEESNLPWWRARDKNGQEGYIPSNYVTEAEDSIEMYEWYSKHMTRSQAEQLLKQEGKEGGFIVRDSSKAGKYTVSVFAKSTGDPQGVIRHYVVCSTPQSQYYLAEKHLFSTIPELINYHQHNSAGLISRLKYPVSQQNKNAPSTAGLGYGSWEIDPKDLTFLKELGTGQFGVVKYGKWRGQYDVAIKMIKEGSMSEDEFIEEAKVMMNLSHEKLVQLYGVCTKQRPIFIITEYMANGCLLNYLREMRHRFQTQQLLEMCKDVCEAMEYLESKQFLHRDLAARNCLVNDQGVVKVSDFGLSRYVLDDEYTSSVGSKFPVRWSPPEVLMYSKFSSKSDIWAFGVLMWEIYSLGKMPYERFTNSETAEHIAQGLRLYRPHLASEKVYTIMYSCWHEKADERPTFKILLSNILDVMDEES
Chain of C-src (P12931 whole entry): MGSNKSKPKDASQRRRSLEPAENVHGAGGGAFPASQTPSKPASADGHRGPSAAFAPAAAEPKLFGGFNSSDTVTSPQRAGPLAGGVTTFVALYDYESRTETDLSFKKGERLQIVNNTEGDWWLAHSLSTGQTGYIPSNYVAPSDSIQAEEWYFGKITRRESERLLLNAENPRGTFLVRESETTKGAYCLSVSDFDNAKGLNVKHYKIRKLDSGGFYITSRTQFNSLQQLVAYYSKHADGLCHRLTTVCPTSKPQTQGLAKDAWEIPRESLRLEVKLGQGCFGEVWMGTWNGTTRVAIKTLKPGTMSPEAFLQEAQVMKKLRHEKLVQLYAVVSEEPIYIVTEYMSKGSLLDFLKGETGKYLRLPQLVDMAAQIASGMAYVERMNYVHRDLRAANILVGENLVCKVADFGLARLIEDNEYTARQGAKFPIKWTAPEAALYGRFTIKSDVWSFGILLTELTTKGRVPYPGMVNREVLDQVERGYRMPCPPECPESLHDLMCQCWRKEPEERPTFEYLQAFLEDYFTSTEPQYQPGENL
Chain of BLK (P51451 whole entry): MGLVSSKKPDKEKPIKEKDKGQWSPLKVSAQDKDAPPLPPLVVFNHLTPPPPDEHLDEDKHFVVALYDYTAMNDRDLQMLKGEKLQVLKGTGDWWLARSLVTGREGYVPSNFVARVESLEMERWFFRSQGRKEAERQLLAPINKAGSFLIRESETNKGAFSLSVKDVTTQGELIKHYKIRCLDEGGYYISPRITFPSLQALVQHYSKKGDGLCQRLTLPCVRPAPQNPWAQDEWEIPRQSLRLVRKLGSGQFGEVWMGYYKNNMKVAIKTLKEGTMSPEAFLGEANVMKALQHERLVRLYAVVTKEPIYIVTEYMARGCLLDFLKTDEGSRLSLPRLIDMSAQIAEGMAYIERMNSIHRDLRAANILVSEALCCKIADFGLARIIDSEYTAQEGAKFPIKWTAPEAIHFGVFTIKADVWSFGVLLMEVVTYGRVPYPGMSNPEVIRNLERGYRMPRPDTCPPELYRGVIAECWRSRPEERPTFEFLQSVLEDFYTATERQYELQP

Compound	IC50 (Lyn)	IC50 (Lck)	IC50 (Btk)	IC50 (BMX)	IC50 (CSK)	IC50 (RET)	IC50 (C-src)	IC50 (BLK)	IC50 (Tec)	IC50 (EGFR)
COc1cccc(-c2nn([C@@H]3CCN(C(=O)/C=C/CN(C)C)C3)c3ncnc(N)c23)c1 [Example 6, (R,E)-1-(3-(4-amino-3-(3-methoxyphenyl)-1H-pyrazolo[3,4-d]pyrimidin-1-yl)pyrrolidin-1-yl)-4-(dimethylamino)but-2-en-1-one]	100 to 1000 nM	100 to 1000 nM	< 100 nM	< 100 nM	> 1000 nM	100 to 1000 nM	< 100 nM	< 100 nM	< 100 nM	100 to 1000 nM
CN(C)C/C=C/C(=O)N1CC[C@@H](n2nc(-c3ccc(Cl)cc3F)c3c(N)ncnc32)C1 [Example 7, (R,E)-1-(3-(4-amino-3-(4-chloro-2-fluorophenyl)-1H-pyrazolo[3,4-d]pyrimidin-1-yl)pyrrolidin-1-yl)-4-(dimethylamino)but-2-en-1-one]	100 to 1000 nM	100 to 1000 nM	< 100 nM	< 100 nM	100 to 1000 nM	100 to 1000 nM	< 100 nM	100 to 1000 nM	< 100 nM	100 to 1000 nM
COc1cc(-c2nn([C@@H]3CCN(C(=O)/C=C/CN(C)C)C3)c3ncnc(N)c23)ccc1F [Example 8, (R,E)-1-(3-(4-amino-3-(4-fluoro-3-methoxyphenyl)-1H-pyrazolo[3,4-d]pyrimidin-1-yl)pyrrolidin-1-yl)-4-(dimethylamino)but-2-en-1-one]	> 1000 nM	100 to 1000 nM	< 100 nM	< 100 nM	> 1000 nM	> 1000 nM	100 to 1000 nM	100 to 1000 nM	< 100 nM	100 to 1000 nM
COc1cc(-c2nn([C@@H]3CCN(C(=O)/C=C/CN(C)C)C3)c3ncnc(N)c23)ccc1C [Example 9, (R,E)-1-(3-(4-amino-3-(3-methoxy-4-methylphenyl)-1H-pyrazolo[3,4-d]pyrimidin-1-yl)pyrrolidin-1-yl)-4-(dimethylamino)but-2-en-1-one]	100 to 1000 nM	< 100 nM	< 100 nM	< 100 nM	100 to 1000 nM	> 1000 nM	< 100 nM	< 100 nM	< 100 nM	< 100 nM
Cc1ccc(-c2nn([C@@H]3CCN(C(=O)/C=C/CN(C)C4CCC4)C3)c3ncnc(N)c23)cc1 [Example 12, (R,E)-1-(3-(4-amino-3-p-tolyl-1H-pyrazolo[3,4-d]pyrimidin-1-yl)pyrrolidin-1-yl)-4-(cyclobutyl(methyl)amino)but-2-en-1-one]	> 1000 nM	100 to 1000 nM	< 100 nM	< 100 nM	> 1000 nM	100 to 1000 nM	100 to 1000 nM	100 to 1000 nM	< 100 nM	> 1000 nM
CN(C)C/C=C/C(=O)N(C)c1ccc(-n2nc(-c3ccc(Cl)cc3)c3c(N)ncnc32)cc1 [Example 14, (E)-N-(4-(4-amino-3-(4-chlorophenyl)-1H-pyrazolo[3,4-d]pyrimidin-1-yl)phenyl)-4-(dimethylamino)-N-methylbut-2-enamide]	100 to 1000 nM	100 to 1000 nM	< 100 nM	< 100 nM	100 to 1000 nM	100 to 1000 nM	< 100 nM	100 to 1000 nM	< 100 nM	100 to 1000 nM
CN(C)C/C=C/C(=O)N(C)c1cccc(-n2nc(-c3ccc(Cl)cc3)c3c(N)ncnc32)c1 [Example 21, (E)-N-(3-(4-amino-3-(4-chlorophenyl)-1H-pyrazolo[3,4-d]pyrimidin-1-yl)phenyl)-4-(dimethylamino)-N-methylbut-2-enamide]	> 1000 nM	100 to 1000 nM	< 100 nM	< 100 nM	> 1000 nM	> 1000 nM	100 to 1000 nM	< 100 nM	< 100 nM	< 100 nM

More lines, now with the values ahead:

IC50 (Lyn)	IC50 (Lck)	IC50 (Btk)	IC50 (BMX)	IC50 (CSK)	IC50 (RET)	IC50 (C-src)	IC50 (BLK)	IC50 (Tec)	IC50 (EGFR)	Compound
> 1000 nM	100 to 1000 nM	< 100 nM	< 100 nM	> 1000 nM	100 to 1000 nM	> 1000 nM	100 to 1000 nM	< 100 nM	100 to 1000 nM	CN(C/C=C/C(=O)N1CC[C@@H](n2nc(-c3ccc(Cl)cc3)c3c(N)ncnc32)C1)C1CCC1 [Example 10, (R,E)-1-(3-(4-amino-3-(4-chlorophenyl)-1H-pyrazolo[3,4-d]pyrimidin-1-yl)pyrrolidin-1-yl)-4-(cyclobutyl(methyl)amino)but-2-en-1-one]
> 1000 nM	100 to 1000 nM	< 100 nM	< 100 nM	> 1000 nM	> 1000 nM	> 1000 nM	> 1000 nM	< 100 nM	> 1000 nM	CN(C/C=C/C(=O)N1CC[C@@H](n2nc(-c3ccc(F)cc3)c3c(N)ncnc32)C1)C1CCC1 [Example 11, (R,E)-1-(3-(4-amino-3-(4-fluorophenyl)-1H-pyrazolo[3,4-d]pyrimidin-1-yl)pyrrolidin-1-yl)-4-(cyclobutyl(methyl)amino)but-2-en-1-one]
> 1000 nM	100 to 1000 nM	< 100 nM	< 100 nM	> 1000 nM	> 1000 nM	> 1000 nM	100 to 1000 nM	< 100 nM	> 1000 nM	COc1cccc(-c2nn([C@@H]3CCN(C(=O)/C=C/CN(C)C4CCC4)C3)c3ncnc(N)c23)c1 [Example 13, (R,E)-1-(3-(4-amino-3-(3-methoxyphenyl)-1H-pyrazolo[3,4-d]pyrimidin-1-yl)pyrrolidin-1-yl)-4-(cyclobutyl(methyl)amino)but-2-en-1-one]
